In the case of `COc1cc(OC)c(NC(=O)c2ccc(Cc3cc4c(cc3C)[Si](C)(C)C[Si]4(C)C)o2)c(OC)c1`, the melting point came to 105 °C.

For the origin of these results see patent US20070111967A1, “Organosilicon compounds and their use” (priority 2003, published 2007).
